Laboratory results published in US20260234129A1, “NOVEL IMIDAZOLE DERIVATIVE AND USE THEREOF” (PELEMED CO., LTD., priority 2023, published 2026).

Key:
Experiment in all cases: scanMax kinase panel (Eurofins)
Assay type in all cases: binding
HIPK1 = target: T1, HIPK1 (Homo sapiens, UniProt Q86Z02); conditions: HIPK1, 1 μM; read-out: % control
T1 construct: purchased Eurofins scanMax® kinase panel
Experimental: (§1) The following assay method was performed to evaluate the inhibitory activities of a compound according to the present invention with respect to various enzymes. […] The compound was applied to the enzyme at a concentration of 1 μM, dissolved in DMSO, and the % control was determined according to Equation 1 below.
(§2) Here, the positive control refers to a compound corresponding to 0% control, and the negative control refers to a compound corresponding to 100% control.

[1] = target: T2, JAK3(JH1domain-catalytic) (Homo sapiens, UniProt P52333); conditions: read-out: % control
T2 construct: JAK3(JH1domain-catalytic); purchased Eurofins
Experimental: as §1, §2

[2] = target: T3, ABL1(M351T)-phosphorylated (Homo sapiens, UniProt P00519, M351T); conditions: read-out: % control
T3 construct: purchased Eurofins
Experimental: as §1, §2

KIT(V559D, T670I) = target: T4, KIT(V559D, T670I) (Homo sapiens, UniProt P10721, T670I/V559D); conditions: read-out: % control
T4 construct: purchased Eurofins
T4 sequence (P10721 26-976 V559D/T670I): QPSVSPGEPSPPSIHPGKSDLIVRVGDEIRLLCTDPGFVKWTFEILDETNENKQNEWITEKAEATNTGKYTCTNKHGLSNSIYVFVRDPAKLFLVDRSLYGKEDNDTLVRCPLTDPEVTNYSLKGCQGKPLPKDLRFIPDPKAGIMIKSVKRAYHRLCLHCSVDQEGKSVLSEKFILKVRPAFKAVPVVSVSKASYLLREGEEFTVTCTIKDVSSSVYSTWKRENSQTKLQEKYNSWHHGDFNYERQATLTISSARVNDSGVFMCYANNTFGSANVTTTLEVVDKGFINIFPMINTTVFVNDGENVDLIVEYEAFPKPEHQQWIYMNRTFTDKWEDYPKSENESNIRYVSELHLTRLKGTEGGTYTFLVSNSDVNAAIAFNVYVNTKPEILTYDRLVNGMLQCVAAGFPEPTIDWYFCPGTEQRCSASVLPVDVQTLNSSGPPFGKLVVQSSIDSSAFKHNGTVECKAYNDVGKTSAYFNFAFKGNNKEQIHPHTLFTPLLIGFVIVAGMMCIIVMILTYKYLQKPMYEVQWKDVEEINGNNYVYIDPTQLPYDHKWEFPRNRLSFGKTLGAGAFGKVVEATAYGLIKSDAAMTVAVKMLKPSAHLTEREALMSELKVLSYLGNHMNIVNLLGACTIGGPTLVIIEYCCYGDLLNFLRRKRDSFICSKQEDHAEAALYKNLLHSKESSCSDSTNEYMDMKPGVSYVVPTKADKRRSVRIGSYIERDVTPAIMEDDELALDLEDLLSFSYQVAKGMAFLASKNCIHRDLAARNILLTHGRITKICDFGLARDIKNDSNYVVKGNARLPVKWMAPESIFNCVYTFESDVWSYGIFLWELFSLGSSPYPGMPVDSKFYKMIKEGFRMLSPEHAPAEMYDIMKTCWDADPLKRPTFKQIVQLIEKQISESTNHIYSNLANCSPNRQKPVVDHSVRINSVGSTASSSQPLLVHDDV
Experimental: as §1, §2

DYRK1B = target: T5, DYRK1B (Homo sapiens, UniProt Q9Y463); conditions: read-out: % control
T5 construct: purchased Eurofins scanMax® kinase panel
Experimental: as §1, §2

KIT(V559D) = target: T6, KIT(V559D) (Homo sapiens, UniProt P10721, V559D); conditions: read-out: % control
T6 construct: purchased Eurofins
Experimental: as §1, §2

[3] = target: T7, JAK1(JH2domain-pseudokinase) (Homo sapiens, UniProt P23458); conditions: read-out: % control
T7 construct: JAK1(JH2domain-pseudokinase); purchased Eurofins
Experimental: as §1, §2

[4] = target: T8, ABL1(F317L)-phosphorylated (Homo sapiens, UniProt P00519, F317L); conditions: read-out: % control
T8 construct: purchased Eurofins
Experimental: as §1, §2

PIM1 = target: T9, PIM1 (Homo sapiens, UniProt P11309); conditions: PIM1, 1 μM; read-out: % control
T9 construct: purchased Eurofins scanMax kinase panel
T9 sequence (P11309 whole entry): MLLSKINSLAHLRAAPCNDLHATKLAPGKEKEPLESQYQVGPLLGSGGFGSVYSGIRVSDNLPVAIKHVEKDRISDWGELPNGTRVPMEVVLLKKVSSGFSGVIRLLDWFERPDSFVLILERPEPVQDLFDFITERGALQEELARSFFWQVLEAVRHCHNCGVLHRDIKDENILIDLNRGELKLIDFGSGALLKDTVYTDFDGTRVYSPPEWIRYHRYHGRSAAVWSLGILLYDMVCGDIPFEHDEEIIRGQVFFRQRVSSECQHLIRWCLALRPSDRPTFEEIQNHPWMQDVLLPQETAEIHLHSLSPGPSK
Experimental: as §1, §2

ABL1-phosphorylated = target: T10, ABL1-phosphorylated (Homo sapiens, UniProt P00519); conditions: read-out: % control
T10 construct: purchased Eurofins
Experimental: as §1, §2

CDK4-cycllinDl = target: T11, CDK4-cycllinDl (Homo sapiens, UniProt P11802); conditions: read-out: % control
T11 construct: purchased Eurofins
Experimental: as §1, §2

DYRKIA = target: T12, DYRKIA (Homo sapiens, UniProt Q13627); conditions: read-out: % control
T12 construct: purchased Eurofins scanMax® kinase panel
Experimental: as §1, §2

PIM3 = target: T13, PIM3 (Homo sapiens, UniProt Q86V86); conditions: PIM3, 1 μM; read-out: % control
T13 construct: purchased Eurofins scanMax kinase panel
Experimental: as §1, §2

[5] = target: T14, ABL1(H396P)-nonphosphorylated (Homo sapiens, UniProt P00519, H396P); conditions: read-out: % control
T14 construct: purchased Eurofins
Experimental: as §1, §2

AURKA = target: T15, AURKA (Homo sapiens, UniProt O14965); conditions: read-out: % control
T15 construct: purchased Eurofins
Experimental: as §1, §2

KIT = target: T16, KIT (Homo sapiens, UniProt P10721); conditions: read-out: % control
T16 construct: purchased Eurofins
T16 sequence (P10721 26-976): as the sequence (P10721 26-976 V559D/T670I) above, with D534V, I645T counted along it
Experimental: as §1, §2

GSK3B = target: T17, GSK3B (Homo sapiens, UniProt P49841); conditions: read-out: % control
T17 construct: purchased Eurofins scanMax® kinase panel
T17 sequence (P49841 whole entry): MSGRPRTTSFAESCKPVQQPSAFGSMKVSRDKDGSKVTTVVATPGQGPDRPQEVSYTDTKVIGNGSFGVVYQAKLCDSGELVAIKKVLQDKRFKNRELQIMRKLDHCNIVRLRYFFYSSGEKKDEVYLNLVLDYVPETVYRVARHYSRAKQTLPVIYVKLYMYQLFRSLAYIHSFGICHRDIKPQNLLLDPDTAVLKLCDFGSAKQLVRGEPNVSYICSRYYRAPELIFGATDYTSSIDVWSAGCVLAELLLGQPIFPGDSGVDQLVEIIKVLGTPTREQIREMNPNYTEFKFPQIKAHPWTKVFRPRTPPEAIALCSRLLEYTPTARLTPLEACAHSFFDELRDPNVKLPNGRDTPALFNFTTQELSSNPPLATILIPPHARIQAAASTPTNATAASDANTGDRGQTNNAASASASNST
Experimental: as §1, §2

KIT(A829P) = target: T18, KIT(A829P) (Homo sapiens, UniProt P10721, A829P); conditions: read-out: % control
T18 construct: purchased Eurofins
Experimental: as §1, §2

[6] = target: T19, ABL1(Y253F)-phosphorylated (Homo sapiens, UniProt P00519, Y253F); conditions: read-out: % control
T19 construct: purchased Eurofins
Experimental: as §1, §2

AURKC = target: T20, AURKC (Homo sapiens, UniProt Q9UQB9); conditions: read-out: % control
T20 construct: purchased Eurofins
T20 sequence (Q9UQB9 whole entry): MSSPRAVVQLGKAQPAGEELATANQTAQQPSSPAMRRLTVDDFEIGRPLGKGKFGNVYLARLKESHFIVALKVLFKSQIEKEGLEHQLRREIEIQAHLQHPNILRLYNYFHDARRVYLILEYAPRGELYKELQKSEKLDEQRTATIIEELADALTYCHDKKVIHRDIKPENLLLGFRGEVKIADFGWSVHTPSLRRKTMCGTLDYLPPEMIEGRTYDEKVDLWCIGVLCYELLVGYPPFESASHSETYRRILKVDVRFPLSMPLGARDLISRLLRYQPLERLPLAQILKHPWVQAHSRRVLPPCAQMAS
Experimental: as §1, §2

HIPK2 = target: T21, HIPK2 (Homo sapiens, UniProt Q9H2X6); conditions: HIPK2, 1 μM; read-out: % control
T21 construct: purchased Eurofins scanMax® kinase panel
T21 sequence (Q9H2X6 whole entry): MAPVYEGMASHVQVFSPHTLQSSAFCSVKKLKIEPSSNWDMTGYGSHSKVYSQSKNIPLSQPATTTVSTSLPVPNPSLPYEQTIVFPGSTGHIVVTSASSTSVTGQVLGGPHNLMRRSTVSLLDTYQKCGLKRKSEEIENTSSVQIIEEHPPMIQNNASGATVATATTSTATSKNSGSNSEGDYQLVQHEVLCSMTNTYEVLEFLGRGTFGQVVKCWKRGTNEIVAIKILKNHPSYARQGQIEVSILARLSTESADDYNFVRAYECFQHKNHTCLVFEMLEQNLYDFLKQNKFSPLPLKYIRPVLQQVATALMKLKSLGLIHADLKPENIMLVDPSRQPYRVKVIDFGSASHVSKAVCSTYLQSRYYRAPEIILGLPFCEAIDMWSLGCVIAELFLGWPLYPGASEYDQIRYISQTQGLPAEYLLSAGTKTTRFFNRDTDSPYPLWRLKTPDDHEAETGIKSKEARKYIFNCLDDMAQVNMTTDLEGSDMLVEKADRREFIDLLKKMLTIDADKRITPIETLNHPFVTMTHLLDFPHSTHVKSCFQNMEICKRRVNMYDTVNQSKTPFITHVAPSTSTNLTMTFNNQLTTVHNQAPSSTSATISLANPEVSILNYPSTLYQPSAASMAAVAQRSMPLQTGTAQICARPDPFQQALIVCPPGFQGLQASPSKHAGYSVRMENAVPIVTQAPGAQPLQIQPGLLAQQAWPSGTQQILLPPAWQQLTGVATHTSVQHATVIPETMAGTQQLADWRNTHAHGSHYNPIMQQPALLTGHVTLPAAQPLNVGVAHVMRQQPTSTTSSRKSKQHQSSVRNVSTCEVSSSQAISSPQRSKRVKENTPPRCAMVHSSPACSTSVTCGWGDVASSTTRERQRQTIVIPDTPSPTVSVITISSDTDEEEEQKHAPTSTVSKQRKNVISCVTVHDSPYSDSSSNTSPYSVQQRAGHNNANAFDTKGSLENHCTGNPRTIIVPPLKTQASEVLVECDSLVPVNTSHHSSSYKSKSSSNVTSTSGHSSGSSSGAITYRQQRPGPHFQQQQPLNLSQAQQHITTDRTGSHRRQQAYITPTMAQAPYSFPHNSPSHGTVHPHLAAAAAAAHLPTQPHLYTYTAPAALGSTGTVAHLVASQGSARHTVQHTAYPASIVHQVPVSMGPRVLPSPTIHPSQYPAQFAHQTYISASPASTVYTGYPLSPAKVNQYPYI
Experimental: as §1, §2

PAK3 = target: T22, PAK3 (Homo sapiens, UniProt O75914); conditions: PAK3, 1 μM; read-out: % control
T22 construct: purchased Eurofins scanMax kinase panel
Experimental: as §1, §2

KIT(V559D, V654A) = target: T23, KIT(V559D, V654A) (Homo sapiens, UniProt P10721, V559D/V654A); conditions: read-out: % control
T23 construct: purchased Eurofins
Experimental: as §1, §2

[7] = target: T24, ABL1(F317I)-phosphorylated (Homo sapiens, UniProt P00519, F317I); conditions: read-out: % control
T24 construct: purchased Eurofins
Experimental: as §1, §2

DYRK2 = target: T25, DYRK2 (Homo sapiens, UniProt Q92630); conditions: DYRK2, 1 μM; read-out: % control
T25 construct: purchased Eurofins scanMax® kinase panel
T25 sequence (Q92630 whole entry): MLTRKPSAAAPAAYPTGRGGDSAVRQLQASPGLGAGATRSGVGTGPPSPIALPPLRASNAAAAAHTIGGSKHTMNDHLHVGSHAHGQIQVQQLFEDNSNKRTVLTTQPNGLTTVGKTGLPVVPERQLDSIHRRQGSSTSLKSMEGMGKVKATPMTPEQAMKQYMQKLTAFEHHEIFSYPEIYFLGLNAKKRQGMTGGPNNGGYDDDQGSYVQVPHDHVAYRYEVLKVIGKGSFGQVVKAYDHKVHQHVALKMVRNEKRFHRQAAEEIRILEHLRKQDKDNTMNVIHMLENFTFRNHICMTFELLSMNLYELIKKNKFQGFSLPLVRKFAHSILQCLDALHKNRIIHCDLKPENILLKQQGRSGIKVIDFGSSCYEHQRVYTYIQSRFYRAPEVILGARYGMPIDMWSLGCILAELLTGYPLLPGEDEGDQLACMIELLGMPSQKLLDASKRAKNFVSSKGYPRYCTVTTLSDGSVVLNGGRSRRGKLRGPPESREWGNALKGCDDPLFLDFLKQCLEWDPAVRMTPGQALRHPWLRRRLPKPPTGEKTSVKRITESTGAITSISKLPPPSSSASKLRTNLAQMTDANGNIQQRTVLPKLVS
Experimental: as §1, §2

PIM2 = target: T26, PIM2 (Homo sapiens, UniProt Q9P1W9); conditions: PIM2, 1 μM; read-out: % control
T26 construct: purchased Eurofins scanMax kinase panel
T26 sequence (Q9P1W9 whole entry): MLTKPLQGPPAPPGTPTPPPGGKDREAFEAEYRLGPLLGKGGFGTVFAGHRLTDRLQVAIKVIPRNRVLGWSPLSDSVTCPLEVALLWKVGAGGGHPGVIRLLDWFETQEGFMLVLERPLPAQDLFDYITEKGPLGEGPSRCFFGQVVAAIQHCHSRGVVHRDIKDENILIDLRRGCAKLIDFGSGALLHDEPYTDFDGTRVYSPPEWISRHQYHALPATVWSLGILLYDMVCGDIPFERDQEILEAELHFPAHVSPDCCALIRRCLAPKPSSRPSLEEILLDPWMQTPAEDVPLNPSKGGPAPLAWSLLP
Experimental: as §1, §2

SRC = target: T27, SRC (Homo sapiens, UniProt P12931); conditions: read-out: % control
T27 construct: purchased Eurofins scanMax kinase panel
Experimental: as §1, §2

[8] = target: T28, JAK2(JH1domain-catalytic) (Homo sapiens, UniProt O60674); conditions: read-out: % control
T28 construct: JAK2(JH1domain-catalytic); purchased Eurofins
T28 sequence (O60674 849-1124 limits assumed): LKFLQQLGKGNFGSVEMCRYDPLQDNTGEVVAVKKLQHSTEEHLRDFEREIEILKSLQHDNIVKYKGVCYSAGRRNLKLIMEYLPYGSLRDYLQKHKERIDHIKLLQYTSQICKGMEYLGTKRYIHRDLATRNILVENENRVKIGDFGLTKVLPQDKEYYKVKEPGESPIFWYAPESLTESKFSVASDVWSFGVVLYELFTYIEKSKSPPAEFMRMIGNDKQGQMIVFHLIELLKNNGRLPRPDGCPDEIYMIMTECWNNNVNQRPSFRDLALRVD
Experimental: as §1, §2

CDK5 = target: T29, CDK5 (Homo sapiens, UniProt Q00535); conditions: CDK5, 1 μM; read-out: % control
T29 construct: purchased Eurofins scanMax® kinase panel
Experimental: as §1, §2

CDK4-cyclinD3 = target: T30, CDK4-cyclinD3 (Homo sapiens, UniProt P11802); conditions: CDK4-cyclinD3, 1 μM; read-out: % control
T30 construct: purchased Eurofins scanMax® kinase panel
Experimental: as §1, §2

CDK2 = target: T31, CDK2 (Homo sapiens, UniProt P24941); conditions: CDK2, 1 μM; read-out: % control
T31 construct: purchased Eurofins
Experimental: as §1, §2

IRAK3 = target: T32, IRAK3 (Homo sapiens, UniProt Q9Y616); conditions: IRAK3, 1 μM; read-out: % control
T32 construct: purchased Eurofins
T32 sequence (Q9Y616 whole entry): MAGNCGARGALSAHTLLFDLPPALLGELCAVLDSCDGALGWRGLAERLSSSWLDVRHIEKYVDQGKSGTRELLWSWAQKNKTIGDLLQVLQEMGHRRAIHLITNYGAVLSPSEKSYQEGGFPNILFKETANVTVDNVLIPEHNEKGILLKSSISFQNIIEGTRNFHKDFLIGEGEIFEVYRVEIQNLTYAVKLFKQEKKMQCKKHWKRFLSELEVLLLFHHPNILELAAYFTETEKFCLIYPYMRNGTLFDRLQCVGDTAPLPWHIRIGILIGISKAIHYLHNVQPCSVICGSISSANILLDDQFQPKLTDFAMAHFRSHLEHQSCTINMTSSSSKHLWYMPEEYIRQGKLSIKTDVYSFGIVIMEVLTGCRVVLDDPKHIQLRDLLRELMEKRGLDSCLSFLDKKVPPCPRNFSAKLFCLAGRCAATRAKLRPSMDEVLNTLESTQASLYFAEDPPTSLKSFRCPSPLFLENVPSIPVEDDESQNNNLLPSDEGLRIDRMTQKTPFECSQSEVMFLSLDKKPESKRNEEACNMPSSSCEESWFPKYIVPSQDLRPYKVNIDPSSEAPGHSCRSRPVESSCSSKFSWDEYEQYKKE
Experimental: as §1, §2

PAK4 = target: T33, PAK4 (Homo sapiens, UniProt O96013); conditions: PAK4, 1 μM; read-out: % control
T33 construct: purchased Eurofins scanMax kinase panel
Experimental: as §1, §2

Measured: remaining binding at 1 µM

COc1ccc2nc(-c3n[nH]c4ccc(C(=O)N[C@H]5CC[C@H](N)C5)cc34)[nH]c2c1 [Example 32, N-((1S,3S)-3-aminocyclopentyl)-3-(6-methoxy-1H-benzo[d]imidazol-2-yl)-1H-indazole-5-carboxamide]
< 10%: all assays above
